Tested on: Caco-2 cells
Experiment: in vitro Caco-2 cell bioassay of iron bioavailability (ferritin formation)
Format: cell-based
Conditions: for effect on iron bioavailability: same testing conditions as avenanthramide 2c (FIG. 1)
Experimental: FIG. 1 is a graph illustrating the results of in vitro tests that were performed in order to predict the effect that avenanthramide 2c, avenanthramide 2p, and avenanthramide 2f would have on iron bioabsorption in humans. Specifically, an in vitro Caco-2 cell bioassay was used that accurately predicts how a compound will influence iron bioabsorption in humans. In these cells, the intracellular iron storage protein known as ferritin forms in direct proportion to cell iron uptake.
[…] The ferric chloride solution is administered to the cells by itself (as a control) and along with the compound(s) being tested to assess their effect iron bioavailability, as measured by the amount of ferritin formed in the cells—a sensitive and accurate measurement of cell iron uptake. The test protocol measures the total weight of cell protein and the total weight of ferritin produced by the cells in order to generate a weight ratio of ferritin to cell protein (in units of ng ferritin formed per mg cell protein). The ratios from the test samples are compared against a control sample wherein only ferric chloride is administered to the cells. Test samples with higher ferritin values (ng ferritin/mg cell protein) compared to the control indicate improvement or enhancement of iron bioavailability, whereas test samples with ferritin values approximately equal to (or within the margin of error) or less than the control indicates no effect on iron bioavailability or inhibition of iron bioavailability, respectively.

Row | SMILES | effect on iron bioavailability | iron bioavailability (ferritin formation) compared with control (5 μM avenanthramide with 10 μM ferric chloride, control = ferric chloride only) | ferritin formation relative to control (20 μM avenanthramide with 10 μM ferric chloride) | ferritin formation, increase over the 5 μM sample (20 μM avenanthramide with 10 μM ferric chloride, relative to 5 μM sample) | ferritin value compared with control and lower concentrations (30 μM avenanthramide with 10 μM ferric chloride)
1 | O=C(/C=C/c1ccc(O)cc1)Nc1ccc(O)cc1C(=O)O [avenanthramide 2p, 5-hydroxy-2-[[(E)-3-(4-hydroxyphenyl)prop-2-enoyl]amino]benzoic acid, reference compound] | negligible or zero effect |  |  |  | 
2 | COc1cc(/C=C/C(=O)Nc2ccc(O)cc2C(=O)O)ccc1O [avenanthramide 2f, 5-hydroxy-2-[[(E)-3-(4-hydroxy-3-methoxyphenyl)prop-2-enoyl]amino]benzoic acid, reference compound] | negligible or zero effect |  |  |  | 
3 | O=C(/C=C/c1ccc(O)c(O)c1)Nc1ccc(O)cc1C(=O)O [avenanthramide 2c, 2-[[(E)-3-(3,4-dihydroxyphenyl)prop-2-enoyl]amino]-5-hydroxybenzoic acid] |  | more than double the control value | more than 3.5 times the control value | more than 1.5 factor | still above the values measured at 10 μM and 5 μM, and well above control

Reference: patent US20190350887A1, “INCREASING BIOAVAILABILITY OF IRON WITH AVENANTHRAMIDE 2c” (priority 2018, published 2019)
